{"source": "ChEMBL document CHEMBL1201862", "about": "“PubChem BioAssay data set” (2004)", "key": {"[1]": {"target": "T1, Histone-lysine N-methyltransferase NSD2 (Homo sapiens, UniProt O96028)", "T1 sequence (O96028 whole entry)": "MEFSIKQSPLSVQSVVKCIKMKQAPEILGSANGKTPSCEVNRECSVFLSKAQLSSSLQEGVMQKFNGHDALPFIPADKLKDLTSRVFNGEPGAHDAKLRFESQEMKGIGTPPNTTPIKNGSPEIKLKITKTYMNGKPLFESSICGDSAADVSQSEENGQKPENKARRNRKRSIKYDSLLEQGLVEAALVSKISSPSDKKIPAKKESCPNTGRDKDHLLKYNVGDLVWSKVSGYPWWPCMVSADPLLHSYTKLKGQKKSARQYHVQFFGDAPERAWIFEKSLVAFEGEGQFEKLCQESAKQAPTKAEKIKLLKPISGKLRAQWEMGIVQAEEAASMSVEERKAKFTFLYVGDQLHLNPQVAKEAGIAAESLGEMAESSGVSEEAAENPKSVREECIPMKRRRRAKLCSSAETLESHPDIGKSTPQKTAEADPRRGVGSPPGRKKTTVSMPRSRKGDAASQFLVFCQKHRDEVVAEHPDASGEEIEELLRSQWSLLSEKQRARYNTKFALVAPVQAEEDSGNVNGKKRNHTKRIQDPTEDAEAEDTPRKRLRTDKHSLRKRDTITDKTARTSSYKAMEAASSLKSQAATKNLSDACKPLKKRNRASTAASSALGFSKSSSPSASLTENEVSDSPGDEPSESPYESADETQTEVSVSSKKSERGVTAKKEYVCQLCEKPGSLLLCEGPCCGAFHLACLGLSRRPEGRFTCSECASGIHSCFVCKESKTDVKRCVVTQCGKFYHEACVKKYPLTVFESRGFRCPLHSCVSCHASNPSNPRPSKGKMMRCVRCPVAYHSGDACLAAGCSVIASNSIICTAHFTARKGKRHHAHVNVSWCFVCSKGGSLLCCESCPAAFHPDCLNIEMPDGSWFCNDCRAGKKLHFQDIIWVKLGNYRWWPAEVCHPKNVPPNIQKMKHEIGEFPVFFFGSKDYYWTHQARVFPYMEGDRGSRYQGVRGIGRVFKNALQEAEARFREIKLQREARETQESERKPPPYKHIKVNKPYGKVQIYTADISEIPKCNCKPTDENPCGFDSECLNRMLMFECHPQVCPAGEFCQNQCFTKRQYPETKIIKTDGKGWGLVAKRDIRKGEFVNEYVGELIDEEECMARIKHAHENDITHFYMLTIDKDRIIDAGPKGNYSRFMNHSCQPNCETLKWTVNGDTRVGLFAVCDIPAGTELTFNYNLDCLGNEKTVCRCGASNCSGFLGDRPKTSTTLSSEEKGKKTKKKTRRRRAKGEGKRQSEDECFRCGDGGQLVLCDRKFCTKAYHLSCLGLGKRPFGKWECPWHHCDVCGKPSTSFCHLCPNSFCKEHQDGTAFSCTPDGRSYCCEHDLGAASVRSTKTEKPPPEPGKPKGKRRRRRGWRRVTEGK", "assay_type": "biochemical"}, "[2]": {"assay": "Counterscreen for AddAB inhibitors: absorbance-based bacterial cell-based high throughput dose response assay for inhibitors of bacterial viability. [Related pubchem assays (depositor defined):AID435030, AID449728, AID449731, AID488942, AID488955, AID488956]", "assay_type": "functional"}, "INS1": {"tested_on": "INS1", "assay": "INS-1E survival protection against cytokine death – cell-based, luminescence, retest, dose response (AID 449756);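 also: cell death triggered by IL-1 beta plus TNF-alpha plus IFN-gamma mixture; protective hits raise ATP signal compared with cytokine alone wells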", "assay_type": "functional", "conditions": "Rattus norvegicus"}, "Paired box protein Pax-8": {"target": "Paired box protein Pax-8 (Homo sapiens, UniProt Q06710)", "sequence (Q06710 whole entry)": "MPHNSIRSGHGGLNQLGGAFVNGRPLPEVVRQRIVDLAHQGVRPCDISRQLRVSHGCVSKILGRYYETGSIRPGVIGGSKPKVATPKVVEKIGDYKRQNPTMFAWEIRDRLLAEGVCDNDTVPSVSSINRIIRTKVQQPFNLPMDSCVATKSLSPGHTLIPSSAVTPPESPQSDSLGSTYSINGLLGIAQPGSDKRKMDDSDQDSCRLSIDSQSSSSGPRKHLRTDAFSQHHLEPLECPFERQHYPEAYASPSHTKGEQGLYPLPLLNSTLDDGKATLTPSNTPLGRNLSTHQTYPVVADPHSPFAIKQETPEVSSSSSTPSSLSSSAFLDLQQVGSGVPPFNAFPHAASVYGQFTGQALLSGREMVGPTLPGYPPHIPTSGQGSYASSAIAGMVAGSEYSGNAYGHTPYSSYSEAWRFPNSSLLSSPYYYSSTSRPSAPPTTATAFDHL", "assay": "PAX8 transcriptional activity inhibition in RMG-I – RMG-I cells, luciferase, cherry-pick, dose response (AID 687027);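 also: luciferase reporter driven by Pax8 target thyroperoxidase promoter measured by SteadyGlo luminescence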", "assay_type": "functional, cell-based"}}, "note": "Calls of active or inactive are those of the source.", "data": [{"smiles": "O=C(N/N=C1\\C/C(=N\\NC(=O)c2ccncc2)c2ccccc21)c1ccncc1", "values": [{"measurement": "AC50", "setting": "[1]", "value": "4.72 µM (active)"}]}, {"smiles": "CCCCC(=O)NC(c1ccccc1)c1ccc2cccnc2c1O", "note": "(stereo not drawn)", "values": [{"measurement": "IC50", "setting": "[2]", "value": "> 118 µM (inactive)"}, {"measurement": "AC50", "setting": "INS1", "value": "0.614 µM (active)"}, {"measurement": "AC50", "setting": "Paired box protein Pax-8", "value": "3.24 µM (active)"}]}, {"smiles": "COc1ccc(-n2c3nc4ccccc4nc3c3c(=N)oc(C)nc32)cc1", "values": [{"measurement": "AC50", "setting": "[1]", "value": "> 20 µM (inactive)"}]}, {"smiles": "CC(=O)N(Cc1ccc(F)cc1)C1=C(NCCc2ccccc2)C(=O)c2ccccc2C1=O", "values": [{"measurement": "AC50", "setting": "INS1", "value": "2.18 µM (active)"}]}, {"smiles": "O=C(/C=C/c1cccs1)NC(=S)NNC(=O)c1ccccc1O", "values": [{"measurement": "IC50", "setting": "[2]", "value": "109 µM (inactive)"}, {"measurement": "AC50", "setting": "Paired box protein Pax-8", "value": "2.35 µM (active)"}]}]}
